Results published in US8299085B2, “Quinazoline derivatives” (Novartis AG, priority 2004, dated 2012).

Experiments:
[1] = tested on: Wistar Kyoto rats; experiment: Test 2: NMDA-channel blocker induced head swaying and circling; type: in vivo, rat; conditions: 10 mg/kg s.c., alone
Procedure: Adult male Wistar Kyoto rats (340-380 g; Iffa Credo, Lyon, France) are used. The animals are randomized to the following treatment groups (n=10 per group): the compound (dosed 0, 3 or 10 mg/kg) followed by phencyclidine (PCP; an NMDA channel blocker, dosed 0 or 10 mg/kg). Compound (at t=−15 min) and PCP (at t=0 min) are administered s.c. in a volume of 1 ml/kg. Video-recordings of the animals behaviour over the period 0-30 min following PCP are scored by an observer who is unaware about the animals pretreatment. Head-swaying (rocking the head repeatedly by at least 2 cm left and right) and circling (turning around by using the forepaws, whereas the hindpaws remain more or less on the original position) are scored as present (1) or absent (0), every five minutes for the duruation of 1 minute. The scores for individual animals is summed and group scores used for statistical analysis (t-test with Bonferroni correction).

[2] = target: AMPA receptor; experiment: [3H] CNQX binding test (AMPA-receptor binding), brain membranes; conditions: 5 nM [3H]-CNQX, 4° C., 40 min
Procedure: CNQX binding test (Honoré et al. Biochem. Pharmacol. 1989, 38: 3207-3212). This test is performed as follows:
Brain membranes: The animals are decapitated, the brain removed and homogenized in 10 volumes of ice-cold 10% sucrose with a glass/Teflon homogenizer at positions 5 for 30 sec. The membranes are centrifuged at 1000×g for 10 min, and the supernatant centrifuged at 20,000×g for 15 min. The resulting pellet is resuspended in 10 volumes of cold water with a tissue homogenizer (Brinkman Polytron) at position 5 for 15 sec and the suspension centrifuged at 8000×g for 10 min. The supernatant including the buffy layer is centrifuged at 40,000×g for 20 min, the pellet resuspended in 5 volumes of water and the suspension frozen (20-30 min in dry ice/methanol) and thawed (water-bath at 37° C.) twice. The suspension is centrifuged at 40,000×g for 20 min, the pellet resuspended in 50 mM HEPES/KOH, pH 7.5, and centrifuged at 40,000×g for 10 min. […]
Radioligand binding assay: It is performed using 96-well microtiterplates in a volume of 0.3 ml of 50 mM HEPES/KOH, pH 7.2, 100 μg membrane protein, 5 nM [^3H]-CNQX (NEN) and the compound to be tested. […] Two hundred μl of the scintillation fluid Microscint 20 (Packard) are added and the radioactivity is counted in a Packard Topcount scintillation counter at an efficiency of 40-45%. […]

[3] = target: T1, rat GluR3-(flop) AMPA receptor (Rattus norvegicus, UniProt P19492); experiment: Functional test for AMPA-receptor activity, two electrode voltage clamp in Xenopus laevis oocytes; type: cell-based; conditions: Xenopus oocytes expressing rGluR3-(flop); read-out: IC50-value, antagonist at the rGluR3 AMPA receptor
T1 construct: expressed in transfected cells; host or cells: Xenopus laevis oocytes (cRNA injection)
T1 sequence (P19492 23-888): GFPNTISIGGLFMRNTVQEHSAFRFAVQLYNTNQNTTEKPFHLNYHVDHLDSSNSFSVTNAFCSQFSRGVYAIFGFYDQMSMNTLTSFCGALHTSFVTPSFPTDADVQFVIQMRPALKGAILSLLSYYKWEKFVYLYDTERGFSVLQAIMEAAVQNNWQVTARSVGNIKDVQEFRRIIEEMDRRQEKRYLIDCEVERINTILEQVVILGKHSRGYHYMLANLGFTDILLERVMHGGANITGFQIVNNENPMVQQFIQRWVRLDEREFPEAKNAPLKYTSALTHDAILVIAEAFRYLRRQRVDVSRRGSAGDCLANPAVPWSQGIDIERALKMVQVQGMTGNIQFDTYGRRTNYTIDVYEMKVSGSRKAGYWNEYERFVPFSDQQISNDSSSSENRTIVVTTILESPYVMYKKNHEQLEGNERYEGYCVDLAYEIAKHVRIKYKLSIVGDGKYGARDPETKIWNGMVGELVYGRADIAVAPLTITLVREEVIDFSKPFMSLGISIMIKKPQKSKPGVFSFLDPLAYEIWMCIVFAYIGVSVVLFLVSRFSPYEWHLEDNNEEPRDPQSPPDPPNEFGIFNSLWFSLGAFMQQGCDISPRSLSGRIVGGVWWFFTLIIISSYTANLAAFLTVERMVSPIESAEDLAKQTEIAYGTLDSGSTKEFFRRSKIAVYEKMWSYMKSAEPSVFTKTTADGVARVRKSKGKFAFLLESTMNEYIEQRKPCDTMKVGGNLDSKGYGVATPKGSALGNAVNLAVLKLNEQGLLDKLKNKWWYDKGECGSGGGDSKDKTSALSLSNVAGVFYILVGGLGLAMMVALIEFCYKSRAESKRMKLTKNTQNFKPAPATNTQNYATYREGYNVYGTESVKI
Procedure: For the determination of functional agonism or antagonism at the AMPA-receptor, experiments can be performed on Xenopus oocytes as previously described in detail (Urwyler et al., Mol. Pharmacol. 2001, 60, 963-971). Briefly, two electrode voltage clamp recordings are performed from Xenopus laevis oocytes expressing GluR3 AMPA receptors. Plasmids for the rat GluR3-(flop) (Hollmann et al., Science 1991, 252, 851-853) are linearized and transcribed into capped cRNA using an in vitro RNA synthesis kit (Ambion, Tex.) with T7 Polymerase. Stock solutions are kept in 70% ethanol. Before use, cRNA is precipitated and resuspended in DEPC-treated water. Oocytes are injected with RNA coding the rat GluR3-(flop) AMPA receptor. For recordings, oocytes are placed in a perfusion chamber with continuous gravity flow of frog Ringer's solution. For recordings from oocytes expressing rGluR3-(flop) receptors frog, Ringer's solution containing Mg^2+ (81 mM NaCl; 2.5 mM KCl; 1 mM CaCl2; 1 mM MgCl2, 2.5 mM NaHCO3, 5 mM HEPES, pH 7.4) is used. Test compounds are washed in with gravity.

[4] = tested on: patients with diabetic neuropathy; experiment: Clinical study, chronic pain in patients with diabetic neuropathy; type: in vivo, human; conditions: 2400 mg/day, Maintenance and Follow-up Periods, statistically significant
Procedure: Patients are randomized to receive 2400 mg/day of the compound or placebo in a 1:1 ratio.
The study consists of a Pre-randomization Phase (1 week) and a Double-blind Phase (5 weeks). The double-blind Phase consists of three periods: a one week Titration Period, a three-week Maintenance Period and a one-week Follow-up Period.
During the 1-week Pre-randomization Phase, the eligibility of the patients is evaluated. Patients meeting all inclusion/exclusion criteria are randomized to either the compound or placebo in the Double-blind Phase. During the 1-week Titration Period, study medication is up-titrated from 800 mg/day (given b.i.d.) to 2400 mg/day (given b.i.d.). Patients who complete the 1-week Titration Period then enter the 3-week Maintenance Period. Patients who complete the 3-week Maintenance period or prematurely discontinue double-blind treatment then enter the 1-week Follow-up Period. Study medication is completely withdrawn on entry into the Follow-up Period. During the Double-blind Phase, serial efficacy and safety assessments are obtained. […]
The SF-MPQ total pain score at the end of the Maintenance Period is analyzed using an analysis of covariance model adjusting for the effect of treatment on post-treatment scores by using the baseline SF-MPQ total pain score as a covariate. Average weekly pain severity is analyzed using an analysis of covariance model with repeated measures using the treatment week and the mean pain severity rating during the Pre-randomization Phase as covariates. Usage of rescue medication during the Double-blind Phase is analyzed using the Cochran-Mantel-Haenszel test controlling for center. The mean pain severity rating during the Follow-up Period (rebound pain) is analyzed using an analysis of covariance model adjusting for the effect of treatment on the mean pain severity rating of the Follow-up Period with the mean pain severity rating during the Prerandomization Phase as a covariate.

[5] = tested on: Wistar Kyoto rats; experiment: Test 1: NMDA-antagonist induced locomotion; type: in vivo, rat; conditions: 10 mg/kg s.c.
Procedure: Male Wistar Kyoto rats (Iffa Crédo, Lyon, France) weighing between 250 and 310 g are used. In principle 4 treatment groups are formed: 1) the compound (doses 1, 3 or 10 mg/kg) followed by the competitive NMDA receptor antagonist (S)-2-amino-3-(2′-chloro-5-phosphonomethyl-biphenyl-3-yl)-propionic acid, hereinafter SDZ 220-581 (10 mg/kg), 2) solvent-pretreatment followed by SDZ 220-581 (10 mg/kg), 3) solvent followed by solvent, 4) the compound (1, 3, 10 mg/kg) followed by solvent. Rats are randomly allocated to these pretreatment groups (n=10/dose group). Drugs are administered subcutaneous (s.c.), 15 min prior to SDZ 220-581. Immediately after the animals received SDZ 220-581, they are placed into the activity monitor for a period of 60 min. Locomotor activity is analysed over the initial 30 minutes.
Locomotion is recorded with a videotracking system (VideoMot2, TSE Technical and Scientific Equipment GmbH, Bad Hombourg, Germany), using a closed circuit digital videocamera (WV-BP.330/GE, Panasonic, Osaka, Japan). The video-signal from the camera is digitized and used for data analysis. […] The camera is placed such, that four animals (one per arena) can be recorded simultaneously.

## c1ccc(C2(N3CCCCC3)CCCCC2)cc1 [PCP, phencyclidine]
[1]
  head-swaying and circling: induces weak head-swaying and circling

## CN(C)c1cc2c(=O)n(NS(C)(=O)=O)c(=O)[nH]c2cc1[N+](=O)[O-] [Example 4, N-(6-Dimethylamino-7-nitro-2,4-dioxo-1,4-dihydro-2H-quinazolin-3-yl)-methanesulfonamide]
[2]
  IC50: 290 nM
[3]
  IC50: 2300 nM

## CS(=O)(=O)Nn1c(=O)[nH]c2cc(C(F)(F)F)c(N3CCCOCC3)cc2c1=O [Example 75, N-(6-[1,4]Oxazepan-4-yl-2,4-dioxo-7-trifluoromethyl-1,4-dihydro-2H-quinazolin-3-yl)-methanesulfonamide]
[4]
  pain severity ratings relative to placebo: decrease pain severity ratings relative to placebo

## CN(CCO)c1cc2c(=O)n(NS(C)(=O)=O)c(=O)[nH]c2cc1C(F)(F)F [Example 83, N-{6-[(2-Hydroxy-ethyl)-methyl-amino]-2,4-dioxo-7-trifluoromethyl-1,4-dihydro-2H-quinazolin-3-yl}-methanesulfonamide]
[4]
  pain severity ratings relative to placebo: decrease pain severity ratings relative to placebo

## CS(=O)(=O)Nn1c(=O)[nH]c2cc(C(F)(F)F)c(N3CCOCC3)cc2c1=O [Example 68, N-(6-Morpholin-4-yl-2,4-dioxo-7-trifluoromethyl-1,4-dihydro-2H-quinazolin-3-yl) -methanesulfonamide]
[4]
  pain severity ratings relative to placebo: decrease pain severity ratings relative to placebo

## N[C@@H](Cc1cc(CP(=O)(O)O)cc(-c2ccccc2Cl)c1)C(=O)O [SDZ 220-581, (S)-2-amino-3-(2′-chloro-5-phosphonomethyl-biphenyl-3-yl)-propionic acid]
[5]
  distance walked during 30 min: approximately 30 m

## CS(=O)(=O)Nn1c(=O)[nH]c2cc([N+](=O)[O-])c(-n3cnc(CO)c3)cc2c1=O [Example 2, N-[6-(4-Hydroxymethyl-imidazol-1-yl)-7-nitro-2,4-dioxo-1,4-dihydro-2H-quinazolin-3-yl]-methanesulfonamide]
other
  melting point: > 300 °C
